Experimental data published in US6207596A, “Disposable premoistened wipe containing an antimicrobial protease inhibitor” (The Procter & Gamble Company, priority 1998, dated 2001).

How the values were obtained:
fecal trypsin = assay: Method 2a: Efficacy of Protease Inhibitors in Fecal Trypsin; type: biochemical; settings: pooled infant fecal suspension; 25° C., 405 nm corrected by 490 nm
Method: (§1) Standard in vitro assays for determining enzyme activity, and inhibition of enzyme activity, are well known. The reagents used to conduct these tests are generally commercially available. In general, a simple system comprises an enzyme-specific substrate which, when hydrolyzed by the enzyme, produces a colored product. The activity of the enzyme is measured spectrophotometrically as the degree of development of the colored product (i.e.; the rate of color change) over a predetermined time period.
(§2) The inhibitory activity of an enzyme inhibitor may be calculated according to the following equation: […]
(§3) In the methods, v and vi are measured as the change in absorbency (optical density, OD) at a given wavelength/time (e.g., minutes). […]
Serial dilutions of a protease inhibitor are made using distilled water. A 0.7 ml aliquot of each dilution of protease inhibitor to be evaluated is added to a microcuvette. […]
A volume of 0.1 mL of fecal suspension is added to the microcuvette and mixed. The absorbency of the mixture at 490 nm is measured with the spectrophotometer. […] The absorbency of the mixture at 405 nm is then measured with the spectrophotometer over a period of 5 minutes at 25° C. These […] in order to correct for any background interference. […]

Staphylococcus aureus = assay: Method 3: antimicrobial activity (NCCLS dilution, MIC), S. aureus; type: cell-based, Staphylococcus aureus ATCC 25923; settings: ATCC25923, ATCC 25923, diluted with distilled water, 24 hours at 37° C., read-out: Minimal Inhibitory Concentration
Method: (§4) 3. Method for Determining the Activity of Antimicrobial Agents:
(§5) This method is used to determine the antimicrobial activity of antimicrobial agents. The antimicrobial activity of an antimicrobial agent is tested according to the National Committee for Clinical Laboratory Standards ("NCCLS") Methods. The NCCLS Dilution Antimicrobial Susceptibility Test for Bacteria Which Grow Aerobically is used (i.e.; NCCLS Document M7-A2, 1990).
(§6) Serial two-fold dilutions of the antimicrobial agent are made in trypticase soy broth in a microtiter plate (in the case of hexamidine diisethionate a 1000 μM starting concentration is recommended). Microorganism inocula are prepared by harvesting colonies from agar plates into saline and adjusting the optical density of the solution to be equivalent to the 0.5 McFarland standard. Each microorganism suspension is diluted 1:10 and 10 microliters of the suspension added to each microtiter well.
(§7) The microtiter plates are sealed and incubated for 24 hours at 37° C. The highest dilution of the antimicrobial agent preventing growth is recorded as the minimal inhibitory concentration ("MIC").
(§8) Referring to Table II, the antimicrobial activity of hexamidine diisethionate on three different microorganisms is shown. For purposes of this example, hexamidine diisethionate was diluted with distilled water and evaluated according to Method 3 above. […]

Candida albicans = assay: Method 3: antimicrobial activity (NCCLS dilution, MIC), C. albicans; type: cell-based, Candida albicans ATCC 10231; settings: ATCC10231, ATCC 10231, diluted with distilled water, 24 hours at 37° C., read-out: Minimal Inhibitory Concentration
Method: as §4, §5, §6, §7, §8

Escherichia coli = assay: Method 3: antimicrobial activity (NCCLS dilution, MIC), E. coli; type: cell-based; settings: ATCC25922, ATCC 25922, diluted with distilled water, 24 hours at 37° C., read-out: Minimal Inhibitory Concentration
Method: as §4, §5, §6, §7, §8

[1] = tested on: purified trypsin (human pancreatic trypsin); assay: Method 1a: Efficacy of Protease Inhibitors in Purified Trypsin; type: biochemical; settings: 25° C., 405 nm; inhibitor diluted in distilled water
Method: as §1, §2, §3
Serial dilutions of a protease inhibitor are made using distilled water. A 50 μl aliquot of each serial dilution of protease inhibitor to be evaluated is added to a microcuvette containing 0.020 ml of trypsin buffer and 0.105 ml of purified trypsin. […]
After incubating, 0.025 ml of the 4 mM N-carbobenzyloxy-arginine-p-nitroanilide substrate solution is added to the microcuvette. […] The absorbency of the mixture is then measured at a wavelength of 405 nm over a period of 10 minutes at a temperature of 25° C. […]

Q: What does the source list for `N=C(N)c1ccc(OCCCCCCOc2ccc(C(=N)N)cc2)cc1` [hexamidine diisethionate]?
A: IC50 (fecal trypsin): 2300 nM; MIC (Staphylococcus aureus): 3 µM; MIC (Candida albicans): 13 µM; MIC (Escherichia coli): 53 µM; IC50 [1]: 2500 nM
